The record followed here is patent US7576094B2, “Spiro derivatives as lipoxygenase inhibitors” (Eli Lilly and Company, priority 2004, dated 2009).

Experiment [1] has as its target T1, human recombinant 5-Lipoxygenase (Homo sapiens, UniProt P09917).
T1 sequence (P09917 1-674): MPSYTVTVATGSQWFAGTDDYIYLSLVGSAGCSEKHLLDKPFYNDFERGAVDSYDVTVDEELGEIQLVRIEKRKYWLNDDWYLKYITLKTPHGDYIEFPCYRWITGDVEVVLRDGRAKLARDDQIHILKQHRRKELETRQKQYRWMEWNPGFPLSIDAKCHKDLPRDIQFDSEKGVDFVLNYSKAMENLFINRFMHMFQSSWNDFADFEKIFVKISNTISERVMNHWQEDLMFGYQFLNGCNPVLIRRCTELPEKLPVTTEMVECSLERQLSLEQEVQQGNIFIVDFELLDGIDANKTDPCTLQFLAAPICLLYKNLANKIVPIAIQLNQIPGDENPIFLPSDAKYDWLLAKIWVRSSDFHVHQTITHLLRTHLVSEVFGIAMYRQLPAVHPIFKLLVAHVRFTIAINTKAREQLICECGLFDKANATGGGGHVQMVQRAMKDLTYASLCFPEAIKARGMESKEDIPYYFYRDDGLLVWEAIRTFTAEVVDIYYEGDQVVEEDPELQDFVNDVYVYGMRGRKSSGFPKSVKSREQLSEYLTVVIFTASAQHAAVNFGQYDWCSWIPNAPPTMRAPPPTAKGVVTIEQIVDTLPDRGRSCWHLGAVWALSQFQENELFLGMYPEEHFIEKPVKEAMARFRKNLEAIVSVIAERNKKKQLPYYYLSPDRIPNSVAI
The experiment is described as follows: 5-Lipoxygenase Enzyme Assay. Format: biochemical. Particulars: 70 μM arachidonic acid, 10 minute incubation at room temperature, FOX reagent, absorbance at 620 nm; read-out: inhibition of 5-Lipoxygenase with an IC50. Put shortly: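 Recombinant human 5-LOX in 50 mM Tris-HCl pH 7.4 was preincubated with compound, then 70 μM arachidonic acid was added for 10 min at room temperature. Hydroperoxide was read by FOX reagent (ferric xylenol orange, 1 h complex formation) as absorbance at 620 nm. Five concentrations in triplicate were tested, starting at 10 μM.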

Experiment [2] concerns the target T2, porcine leukocyte 12/15-Lipoxygenase (Sus scrofa, UniProt P16469).
T2 sequence (P16469 1-663): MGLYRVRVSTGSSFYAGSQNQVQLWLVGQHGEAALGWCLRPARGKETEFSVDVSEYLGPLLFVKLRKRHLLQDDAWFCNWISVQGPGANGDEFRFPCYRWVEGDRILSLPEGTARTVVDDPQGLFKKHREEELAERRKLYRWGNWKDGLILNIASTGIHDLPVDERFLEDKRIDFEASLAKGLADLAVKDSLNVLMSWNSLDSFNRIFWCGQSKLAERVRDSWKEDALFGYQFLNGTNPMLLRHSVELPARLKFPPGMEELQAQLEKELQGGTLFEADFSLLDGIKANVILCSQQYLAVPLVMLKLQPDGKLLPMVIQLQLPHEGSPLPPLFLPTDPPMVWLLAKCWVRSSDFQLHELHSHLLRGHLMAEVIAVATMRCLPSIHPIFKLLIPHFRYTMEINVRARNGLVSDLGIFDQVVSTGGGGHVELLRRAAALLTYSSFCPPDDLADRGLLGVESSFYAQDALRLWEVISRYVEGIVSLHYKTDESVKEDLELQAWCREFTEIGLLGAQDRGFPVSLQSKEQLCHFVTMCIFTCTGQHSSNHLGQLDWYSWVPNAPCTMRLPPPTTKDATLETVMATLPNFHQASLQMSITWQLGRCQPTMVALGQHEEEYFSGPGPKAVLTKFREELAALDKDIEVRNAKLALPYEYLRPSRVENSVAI
The experiment is described as follows: 12/15-Lipoxygenase Enzyme Assay. It is filed as biochemical. Particulars: 70 μM arachidonic acid, 10 minute incubation at room temperature, FOX reagent, absorbance at 620 nm; read-out: inhibition of 12/15-Lipoxygenase with an IC50. The text has this:
This procedure was used for measuring the enzymatic activity of porcine leukocyte 12/15-Lipoxygenase using a […] method based on the ferric oxidation of xylenol orange.
• 96 well flat bottom microfilter plates (VWR, Catalog # 62402-933 9295) • Lipoxygenase screening assay buffer (Cayman, Catalog # 760710) • Porcine leukocyte 12/15-Lipoxygenase (Cayman, Catalog # 60300) • Arachidonic Acid (Sigma, Catalog # A3555) • Xylenol orange tetrasodium salt (Aldrich, Catalog # 227854) • Iron (II) sulfate heptahydrate (Sigma, Catalog # F7002) • Sulfuric acid (95-98%) [18M] • Methanol Procedure
Porcine Leukocyte 12/15-Lipoxygenase (Cayman Cat # 60300) was used in this assay. Test compound and/or vehicle was added to 1.3 μL 12/15-Lipoxygenase in 50 mM Tris-HCl buffer, pH 7.4. The reaction was initiated by addition of 70 μM arachidonic acid in Tris-HCl buffer, pH 7.4, and terminated after a 10 minute incubation at room temperature by addition of FOX reagent (25 mM sulfuric acid, 100 μM xylenol orange, 100 μM iron (II) sulfate, methanol:water 9:1). The yellow color of acidified xylenol orange was converted to a blue color by the lipid hydroperoxide-mediated oxidation of Fe^2+ ions and the interaction of the resulting Fe^3+ ions with the dye. The complex was allowed to form during a 1 hour incubation at room temperature with shaking. Absorbance of the Fe^3+ complex was then measured at […] using a spectrophotometer.
Negative controls contained enzyme during the incubation step but substrate was not added until after the FOX reagent. Compounds are screened at 5 concentrations in triplicate starting at 10 μM

For experiment [3], the system named is release of the leukotriene LTB4 from a neutrophil cell line (MPRO cell line). Briefly: LTB4-Cell Assay. Format: cell-based. Conditions: Mus musculus, 1 h, read-out: inhibition of LTB4 with an EC50. In short, it runs like this: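 Mouse promyelocytic cells differentiated to neutrophils with 10 μM all-trans retinoic acid for 72 h, then stimulated with 1 μM A23187 plus compound for 1 h at 37° C. Supernatant LTB4 quantified by competitive EIA; 5 concentrations in quadruplicate from 10 μM top.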

Experiment [4] concerns LTB4 production in human whole blood. The experiment is described as follows: Inhibition of LTB4 Production in Blood. Format: cell-based. Particulars: 1 h, 20 μM A23187, 60 minutes at 37° C., LTB4 in plasma by ELISA, read-out: protection against LTB4 at an EC50. Put shortly: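 Citrated human whole blood preincubated 15 min at 37 °C with compound (top final 30 μM, 1:3 dilutions, quadruplicate), then stimulated with 20 μM A23187 for 60 min at 37 °C. Plasma LTB4 quantified by ELISA; IC50 from percent inhibition versus vehicle.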
A general note: ELISA stands for enzyme-linked immunosorbent assay.

Bounds are passed on as bounds.

For orientation: EC50 means the concentration at which the effect is half-maximal. For `Cc1c(C)c2c(c(C)c1O)C(OC(=O)Nc1ccccc1)CCS2` (stereo not drawn) [6-hydroxy-5,7,8-trimethylthiochroman-4-yl phenylcarbamate], the figures for the IC50 in experiment [1] and in experiment [2] were under 0.3 µM and under 5 µM, respectively. For the same molecule, the EC50 in experiment [3] is under 5 µM.

As for `CCOC1CC2(CCC2)Oc2c(C)c(C)c(O)c(C)c21` (stereo not drawn) [4-ethoxy-5,7,8-trimethyl-3,4-dihydrospiro[chromene-2,1′-cyclobutan]-6-ol], the figures for the IC50 in experiment [1] and in experiment [2] were under 0.3 µM and under 5 µM, respectively. The half-maximal effective concentration (EC50) in experiment [3] was under 5 µM.

Take `Cc1c(O)c(CCC(C)C)c(C)c2c1CCC1(CCC1)O2` [5,8-dimethyl-7-(3-methylbutyl)-3,4-dihydrospiro[chromene-2,1′-cyclobutan]-6-ol]: the IC50 was under 0.3 µM in experiment [1] and under 5 µM in experiment [2]. Further, in experiment [3], the EC50 was under 5 µM.

With `Cc1c(O)c(C)c2c(c1Cl)OC1(CCC1)CC2` [8-chloro-5,7-dimethyl-3,4-dihydrospiro[chromene-2,1′-cyclobutan]-6-ol], the IC50 in experiment [1] is under 0.3 µM; in experiment [2], under 5 µM. In addition, the EC50 in experiment [3] was under 5 µM.

On to `Cc1c(O)c(C(C)C)cc2c1CCC1(CCC1)O2` [7-isopropyl-5-methyl-3,4-dihydrospiro[chromene-2,1′-cyclobutan]-6-ol], for which the IC50 was under 0.3 µM in experiment [1] and under 5 µM in experiment [2]. In addition, the EC50 in experiment [4] was under 10 µM.

Consider `Cc1cc2c(c(C)c1O)C=C(c1cnco1)C1(CCC1)O2` [5,7-dimethyl-3-(1,3-oxazol-5-yl)spiro[chromene-2,1′-cyclobutan]-6-ol], for which the IC50 in experiment [1] was under 0.3 µM; in experiment [2], under 5 µM. Besides, the EC50 in experiment [4] is under 10 µM.

Take `Cc1c(C)c2c(c(C)c1OC(=O)CN1CCN(C)CC1)CCC1(CCC1)O2` [5,7,8-trimethyl-3,4-dihydrospiro[chromene-2,1′-cyclobutan]-6-yl-2-(4-methylpiperazin-1-yl)acetate]: in experiment [2], the IC50 is under 5 µM.

For `Cc1c(O)cc2c(c1C)N(c1cccc(O)c1)CC1(CCC1)C2` [1′-(3-hydroxyphenyl)-7′,8′-dimethyl-2′,4′-dihydro-1′H-spiro[cyclobutane-1,3′-quinolin]-6′-ol], the IC50 in experiment [1] is under 0.3 µM; in experiment [2], under 5 µM.

With `COc1cc2c(c(C)c1C)N(c1ccc(O)cc1)CC1(CCC1)C2` [4-(6′-methoxy-7′,8′-dimethyl-2′,4′-dihydro-1′H-spiro[cyclobutane-1,3′-quinoline]-1′-yl)phenol], the IC50 in experiment [1] was under 0.3 µM; in experiment [2], under 5 µM.

Regarding `Cc1c(O)c(C(C)C)cc2c1C=CC1(CCC1)O2` [7-isopropyl-5-methylspiro[chromene-2,1′-cyclobutan]-6-ol], the IC50 in experiment [1] is under 0.3 µM; in experiment [2], under 5 µM. Further, the EC50 in experiment [4] is under 10 µM.

In the case of `CCCc1ccc(S(=O)(=O)NCCCN2CC3(CCC3)Cc3cc(O)c(C)c(C)c32)cc1` [N-(3-(6′-hydroxy-7′,8′-dimethyl-2′,4′-dihydro-1′H-spiro[cyclobutane-1,3′-quinoline]-1′-yl)propyl)-4-propylbenzenesulfonamide], the results for the IC50 in experiment [1] and in experiment [2] were under 0.3 µM and under 5 µM, respectively. Besides, in experiment [4], the EC50 was under 10 µM.

Consider `Cc1cc2c(c(C)c1O)CC(c1cnco1)C1(CCC1)O2` (stereo not drawn) [5,7-dimethyl-3-(oxazol-5-yl)spiro[chroman-2,1′-cyclobutan]-6-ol], for which the IC50 in experiment [1] was under 0.3 µM; in experiment [2] it was under 5 µM. For the same molecule, the EC50 in experiment [4] was under 10 µM.

Take `CCN1CC2(CCC2)Cc2cc(O)c(C)c(C)c21` [1′-ethyl-7′,8′-dimethyl-2′,4′-dihydro-1′H-spiro[cyclobutane-1,3′-quinolin]-6′-ol]: the IC50 in experiment [2] is under 5 µM.

Turning to `Cc1ccc(N2CC3(CCC3)Cc3cc(O)c(C)c(C)c32)cc1` [7′,8′-dimethyl-1′-p-tolyl-2′,4′-dihydro-1′H-spiro[cyclobutane-1,3′-quinolin]-6′-ol], the IC50 is under 0.3 µM in experiment [1] and under 5 µM in experiment [2].

`Cc1c(O)cc2c(c1C)N(c1ccc(O)cn1)CC1(CCC1)C2` [1′-(5-hydroxypyridin-2-yl)-7′,8′-dimethyl-2′,4′-dihydro-1′H-spiro[cyclobutane-1,3′-quinolin]-6′-ol]: the IC50 in experiment [1] is under 0.3 µM; in experiment [2], under 5 µM. Also, the EC50 in experiment [4] is under 10 µM.

For the molecule `Cc1c(O)c(CCc2ccc3ccccc3n2)c(C)c2c1CCC1(CCC1)O2` [5,8-dimethyl-7-(2-(quinolin-2-yl)ethyl)spiro[chroman-2,1′-cyclobutan]-6-ol], in experiment [2], the IC50 was under 5 µM.

Regarding `CCc1cc2c(c(CC)c1O)C=CC1(CCC1)O2` [5,7-diethylspiro[chromene-2,1′-cyclobutan]-6-ol], the IC50 in experiment [1] is under 0.3 µM; in experiment [2] it was under 5 µM. Moreover, the EC50 in experiment [4] was under 10 µM.

In the case of `Cc1c(O)c(C(C)(C)C)cc2c1CC1(CCC1)CN2c1ccc(O)cn1` [7′-tert-butyl-1′-(5-hydroxypyridin-2-yl)-5′-methyl-2′,4′-dihydro-1′H-spiro[cyclobutane-1,3′-quinolin]-6′-ol], the IC50 in experiment [2] was under 5 µM.

Consider `CC(C)c1cc2c(c(C(C)C)c1O)C=CC1(CCC1)O2` [5,7-diisopropylspiro[chromene-2,1′-cyclobutan]-6-ol], for which the IC50 is under 0.3 µM in experiment [1] and under 5 µM in experiment [2]. Moreover, the EC50 in experiment [4] is under 10 µM.

As to `Cc1c(O)cc2c(c1C)N(c1ccc(Cl)cc1)CC1(CCC1)C2O` (stereo not drawn) [1′-(4-chlorophenyl)-7′,8′-dimethyl-2′,4′-dihydro-1′H-spiro[cyclobutane-1,3′-quinoline]-4′,6′-diol], in experiment [2], the IC50 was under 5 µM.

Take `Cc1c(C)c2c(c(C)c1O)CC1(CCC1)CO2` [5,7,8-trimethylspiro[chroman-3,1′-cyclobutan]-6-ol]: the IC50 in experiment [1] is under 0.3 µM; in experiment [2] it was under 5 µM. In addition, the EC50 in experiment [4] was under 10 µM.

Regarding `COc1c(C(C)(C)C)cc2c(c1C)CC1(CCC1)CN2c1ccc(O)cn1` [6-(7′-tert-butyl-6′-methoxy-5′-methyl-2′,4′-dihydro-1′H-spiro[cyclobutane-1,3′-quinoline]-1′-yl)pyridin-3-ol], the IC50 in experiment [2] was under 5 µM.
